Tests used:
[1] = test system: diastolic congestive heart failure patients; assay: Echocardiographic evaluation of diastolic function in diastolic congestive heart failure patients, EPA-E-administered vs non-administered group (Example 2); assay type: in vivo, human
Protocol: Diastolic congestive heart failure patients were targeted and divided into an EPA-E-administered group and an EPA-E-non-administered group. The EPA-E-administered group received the oral administration of EPA-E (trade name: Epadel; manufactured by Mochida Pharmaceutical Co., Ltd.) at a daily dose of 1800 mg for 6 months. The EPA-E-non-administered group received neither EPA nor its derivative during the test period. Another hypotensive or antilipidemic agent was not administered to any of these groups during the test period. The diastolic function of each patient was evaluated by echocardiography before the start of the test and after the completion of the test (6 months later). The evaluation items used were 1) a ratio of a peak filling velocity of early diastolic transmitral flow (a peak filling velocity of mitral inflow during early diastole: E) to a peak filling velocity of atrial systolic transmitral flow (a peak filling velocity of mitral inflow during atrial contraction: A) (E/A ratio), 2) the time required for the peak filling velocity of mitral inflow during early diastole to reach zero (deceleration time: DT), 3) an early diastolic mitral annulus velocity (E), and 4) an E/E′ ratio. The degree of improvement in these indexes was confirmed for each case corresponding to 1) an E/A ratio<1.0, 2) DT>250 msec, 3) E′<8 cm/s, or 4) an E/E′ ratio>15 as an index for cardiac diastolic dysfunction. The rate of change was determined as an average of % change from the value (defined as 100) before the start to the value after 6 months in each case.

[2] = test system: diastolic congestive heart failure patients; assay: as above; assay type: in vivo, human; conditions: target cases E′ <8 cm/s (18 cases)
[3] = printed as reduction (improvement), average of % change per case, before start to 6 months, 1800 mg/day oral
[4] = printed as rise (improvement), average of % change per case, before start to 6 months, 1800 mg/day oral

**Q.** What does the source list for `CC/C=C\C/C=C\C/C=C\C/C=C\C/C=C\CCCC(=O)OCC` [EPA-E, icosapentaenoic acid ethyl ester]?
**A.** DT, rate of change [1, 3]: 10.9% reduction; E/E′ ratio, rate of change [1, 3]: 27.4% reduction; E/A ratio, rate of change [1, 4]: 3.7% rise; E′, rate of change [1, 4]: 2.3% rise; DT (deceleration time), mean after 6 months ([1]; target cases DT >250 msec (6 cases), EPA-E 1800 mg/day oral, 6 months): 241.7 ms; DT (deceleration time), mean before start ([1]; target cases DT >250 msec (6 cases), baseline before EPA-E 1800 mg/day oral): 271.3 ms; E/A ratio, mean after 6 months ([1]; target cases E/A ratio <1.0 (14 cases), EPA-E 1800 mg/day oral, 6 months): 0.692; E/A ratio, mean before start ([1]; target cases E/A ratio <1.0 (14 cases), baseline before EPA-E 1800 mg/day oral): 0.669; E/E′ ratio, mean after 6 months ([1]; target cases E/E′ ratio >15 (4 cases), EPA-E 1800 mg/day oral, 6 months): 13.14; E/E′ ratio, mean before start ([1]; target cases E/E′ ratio >15 (4 cases), baseline before EPA-E 1800 mg/day oral): 18.09; E′ (early diastolic mitral annular velocity), mean after 6 months ([2]; EPA-E 1800 mg/day oral, 6 months): 4.539 cm/s; E′ (early diastolic mitral annular velocity), mean before start ([2]; baseline before EPA-E 1800 mg/day oral): 4.483 cm/s

From patent publication US20140039053A1, “THERAPEUTIC AGENT FOR DIASTOLIC CONGESTIVE HEART FAILURE” (Mochida Pharmaceutical Co., Ltd., priority 2011, published 2014)
